Results as given in ChEMBL document CHEMBL1201862, “PubChem BioAssay data set” (2004).
Blank lines part the entries; values can stand above or below the compound they belong to. Active and inactive are the calls of the source.

Columns and labels:
[1] = target: Mast/stem cell growth factor receptor Kit (Homo sapiens, UniProt P10721); type: functional;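 note: KIT entry within a kinase panel assay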
[2] = target: Rho-associated protein kinase 2 (Homo sapiens, UniProt O75116); type: functional
[3] = target: Heat shock protein HSP 90-alpha (Homo sapiens, UniProt P07900); test: Luminescence-based dose response biochemical high throughput screening assay for inhibitors of the Heat Shock Protein 90 (HSP90). [Related pubchem assays: 1831 (Summary AID.), 1846 (Confirmation screen.), 1789 (Primary screen.)]
Genome polyprotein = Genome polyprotein (dengue virus type 2, UniProt P29990); test: flavivirus cap methylation enzyme inhibition – biochemical, confirmation dose response, primary screen (AID 588689); type: functional
Chain of Genome polyprotein (P29990 2492-3391 limits assumed): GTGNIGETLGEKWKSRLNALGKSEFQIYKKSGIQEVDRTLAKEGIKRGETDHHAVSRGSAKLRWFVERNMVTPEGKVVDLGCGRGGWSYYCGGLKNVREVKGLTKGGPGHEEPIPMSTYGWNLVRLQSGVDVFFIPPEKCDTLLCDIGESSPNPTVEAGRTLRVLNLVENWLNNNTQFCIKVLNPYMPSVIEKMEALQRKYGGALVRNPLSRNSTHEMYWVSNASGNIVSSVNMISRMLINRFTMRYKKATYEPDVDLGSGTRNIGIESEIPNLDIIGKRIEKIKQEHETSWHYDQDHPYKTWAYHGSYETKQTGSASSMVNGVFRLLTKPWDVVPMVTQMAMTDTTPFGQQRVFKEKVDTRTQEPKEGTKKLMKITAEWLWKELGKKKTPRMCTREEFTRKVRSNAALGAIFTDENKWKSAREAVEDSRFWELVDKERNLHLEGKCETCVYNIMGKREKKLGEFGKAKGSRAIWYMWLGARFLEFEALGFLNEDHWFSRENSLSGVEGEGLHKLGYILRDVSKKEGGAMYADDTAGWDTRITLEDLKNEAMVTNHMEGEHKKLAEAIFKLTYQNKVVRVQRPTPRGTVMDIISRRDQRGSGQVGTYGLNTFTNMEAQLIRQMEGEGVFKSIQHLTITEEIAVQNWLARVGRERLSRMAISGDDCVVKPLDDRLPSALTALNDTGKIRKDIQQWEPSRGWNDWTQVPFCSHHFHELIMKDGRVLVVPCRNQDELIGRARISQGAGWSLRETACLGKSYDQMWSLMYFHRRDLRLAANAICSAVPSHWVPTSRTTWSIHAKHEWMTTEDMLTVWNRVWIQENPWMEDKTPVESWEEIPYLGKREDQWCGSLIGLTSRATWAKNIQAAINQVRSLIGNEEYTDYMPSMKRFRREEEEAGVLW

[4] = test system: Streptococcus sp. 'group A'; test: Streptococcus pyogenes SK(-)GAS viability under kanamycin – luminescence, BacTiterGlo, confirmation, counter-screen for streptokinase expression inhibitor project, dose response (AID 1900); type: functional, organism-based
[5] = target: T1, Heat shock factor protein 1 (Mus musculus, UniProt P38532); test: decrease of HSF1-responsive luciferase luminescence – cell-based, NIH3T3, dose retest, confirmation (AID 2382); type: functional;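 note: NIH3T3 fibroblasts with HSF1-driven luciferase reporter stressed by proteasome inhibitor MG132; luminescence from HSF1-driven luciferase expression after 8 hours of MG132 stress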
T1 sequence (P38532 whole entry): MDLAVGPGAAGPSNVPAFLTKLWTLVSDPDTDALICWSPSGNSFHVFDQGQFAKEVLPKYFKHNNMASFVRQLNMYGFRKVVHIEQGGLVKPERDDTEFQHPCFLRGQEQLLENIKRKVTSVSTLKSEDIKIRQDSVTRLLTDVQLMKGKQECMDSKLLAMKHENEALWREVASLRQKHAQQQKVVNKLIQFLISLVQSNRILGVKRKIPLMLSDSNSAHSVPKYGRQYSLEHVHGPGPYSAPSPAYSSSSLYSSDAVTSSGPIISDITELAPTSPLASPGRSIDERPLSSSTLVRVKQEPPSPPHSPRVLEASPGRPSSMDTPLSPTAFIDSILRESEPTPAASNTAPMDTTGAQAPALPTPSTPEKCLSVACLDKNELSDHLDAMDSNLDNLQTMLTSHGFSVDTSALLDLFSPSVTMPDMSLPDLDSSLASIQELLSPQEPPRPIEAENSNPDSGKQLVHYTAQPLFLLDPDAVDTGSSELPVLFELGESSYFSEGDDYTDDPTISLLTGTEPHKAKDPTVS

[6] = blockers of HIV-1 ZM109 envelope-driven cell-cell fusion – HeLa effector, CEM target cells, luciferase, cherry-pick, dose response (AID 652058); type: functional, cell-based;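 note: luciferase signal from HIV-1 Env mediated cell-cell fusion of effector and target cells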
[7] = off-target signal loss in HeLa-CEM21 co-culture – HeLa F-luc CTL cells, cherry-picked, counter-screen for HIV-1 Env fusion inhibitor project, dose response (AID 652040); type: functional, cell-based;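 note: potency for signal decrease marking cytotoxic or nonspecific inhibition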
[8] = viability loss in CEM21 cells – cell-based, CellTiter-Glo luminescence, cherry-picked, cytotoxicity control for viral fusion inhibitor project, dose response (AID 652042); type: functional;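 note: potency for signal decrease meaning cytotoxicity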
[9] = target: Serine/threonine-protein kinase Chk1 (Homo sapiens, UniProt O14757); type: functional;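 note: measured as one member of a kinome-wide kinase profiling panel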
Chain of Serine/threonine-protein kinase Chk1 (O14757 whole entry, the tested form may be a part): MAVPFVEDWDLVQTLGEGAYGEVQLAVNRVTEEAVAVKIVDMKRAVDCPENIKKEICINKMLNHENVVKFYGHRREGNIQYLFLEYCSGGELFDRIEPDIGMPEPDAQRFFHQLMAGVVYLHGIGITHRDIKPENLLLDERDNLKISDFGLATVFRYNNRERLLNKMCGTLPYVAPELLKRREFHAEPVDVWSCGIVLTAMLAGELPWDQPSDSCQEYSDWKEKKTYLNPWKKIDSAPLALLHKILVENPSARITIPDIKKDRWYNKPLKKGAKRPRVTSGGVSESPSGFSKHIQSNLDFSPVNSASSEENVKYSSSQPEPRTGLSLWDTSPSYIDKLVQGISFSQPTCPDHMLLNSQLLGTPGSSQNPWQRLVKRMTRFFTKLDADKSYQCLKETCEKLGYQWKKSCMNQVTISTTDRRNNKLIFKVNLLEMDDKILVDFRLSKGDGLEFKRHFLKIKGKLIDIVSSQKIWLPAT

LIM domain kinase 1 = LIM domain kinase 1 (Homo sapiens, UniProt P53667); test: Navigating the Kinome. Panel member name: LIMK1; type: functional
Chain of LIM domain kinase 1 (P53667 whole entry, the tested form may be a part): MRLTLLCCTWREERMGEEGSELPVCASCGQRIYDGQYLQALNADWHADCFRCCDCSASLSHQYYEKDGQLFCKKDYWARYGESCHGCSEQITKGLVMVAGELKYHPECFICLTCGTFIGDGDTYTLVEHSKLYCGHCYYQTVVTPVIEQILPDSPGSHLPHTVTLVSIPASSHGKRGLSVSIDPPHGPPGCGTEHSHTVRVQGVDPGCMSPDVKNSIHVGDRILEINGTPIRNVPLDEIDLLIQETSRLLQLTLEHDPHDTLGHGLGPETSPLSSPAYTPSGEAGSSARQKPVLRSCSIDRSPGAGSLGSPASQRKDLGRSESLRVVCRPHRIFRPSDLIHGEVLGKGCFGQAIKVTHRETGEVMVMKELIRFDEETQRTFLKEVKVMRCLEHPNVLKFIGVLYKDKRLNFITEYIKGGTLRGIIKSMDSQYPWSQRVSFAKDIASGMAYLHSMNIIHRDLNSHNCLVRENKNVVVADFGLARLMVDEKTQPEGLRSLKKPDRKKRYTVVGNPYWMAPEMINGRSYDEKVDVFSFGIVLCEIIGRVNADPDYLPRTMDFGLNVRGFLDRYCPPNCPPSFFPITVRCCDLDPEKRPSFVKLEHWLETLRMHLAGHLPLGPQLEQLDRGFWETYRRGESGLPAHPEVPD

[10] = target: T2, Lysine-specific demethylase 4C (Homo sapiens, UniProt Q9H3R0); test: inhibition of JMJD2C H3K9me3 demethylation – biochemical, DELFIA europium, cherry-picked samples, dose response (AID 488835); type: functional
T2 sequence (Q9H3R0 whole entry): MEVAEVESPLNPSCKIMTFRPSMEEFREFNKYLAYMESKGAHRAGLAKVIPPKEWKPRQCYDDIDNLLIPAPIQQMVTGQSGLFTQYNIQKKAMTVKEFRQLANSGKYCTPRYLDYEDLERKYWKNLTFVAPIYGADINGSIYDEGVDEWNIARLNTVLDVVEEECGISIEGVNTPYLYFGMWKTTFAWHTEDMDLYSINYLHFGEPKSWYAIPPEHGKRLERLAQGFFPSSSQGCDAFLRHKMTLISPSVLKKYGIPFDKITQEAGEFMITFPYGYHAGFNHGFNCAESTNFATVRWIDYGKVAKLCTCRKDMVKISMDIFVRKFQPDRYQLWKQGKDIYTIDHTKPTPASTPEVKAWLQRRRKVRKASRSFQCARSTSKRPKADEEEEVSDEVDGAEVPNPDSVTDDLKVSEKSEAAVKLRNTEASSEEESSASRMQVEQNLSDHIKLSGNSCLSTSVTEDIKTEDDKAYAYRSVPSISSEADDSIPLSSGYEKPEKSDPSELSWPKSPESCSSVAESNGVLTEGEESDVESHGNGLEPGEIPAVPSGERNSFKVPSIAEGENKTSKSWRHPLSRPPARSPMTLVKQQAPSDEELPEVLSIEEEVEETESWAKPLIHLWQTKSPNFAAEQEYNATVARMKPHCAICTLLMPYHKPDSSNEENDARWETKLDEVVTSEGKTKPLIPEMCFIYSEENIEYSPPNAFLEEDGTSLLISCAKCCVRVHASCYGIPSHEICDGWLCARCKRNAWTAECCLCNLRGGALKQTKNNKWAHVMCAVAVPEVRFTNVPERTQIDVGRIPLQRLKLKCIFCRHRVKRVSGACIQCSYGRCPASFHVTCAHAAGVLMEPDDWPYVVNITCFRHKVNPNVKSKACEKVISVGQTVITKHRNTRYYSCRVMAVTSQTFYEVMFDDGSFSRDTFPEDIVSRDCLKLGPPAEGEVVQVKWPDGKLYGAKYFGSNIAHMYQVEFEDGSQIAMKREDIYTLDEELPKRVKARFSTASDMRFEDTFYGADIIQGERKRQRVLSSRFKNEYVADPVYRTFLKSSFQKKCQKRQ

[11] = target: Tyrosyl-DNA phosphodiesterase 2 (Homo sapiens, UniProt O95551); test: potency against TDP2 phosphodiesterase activity – biochemical, epi absorbance, IC50, dose response (AID 743297)
Chain of Tyrosyl-DNA phosphodiesterase 2 (O95551 whole entry): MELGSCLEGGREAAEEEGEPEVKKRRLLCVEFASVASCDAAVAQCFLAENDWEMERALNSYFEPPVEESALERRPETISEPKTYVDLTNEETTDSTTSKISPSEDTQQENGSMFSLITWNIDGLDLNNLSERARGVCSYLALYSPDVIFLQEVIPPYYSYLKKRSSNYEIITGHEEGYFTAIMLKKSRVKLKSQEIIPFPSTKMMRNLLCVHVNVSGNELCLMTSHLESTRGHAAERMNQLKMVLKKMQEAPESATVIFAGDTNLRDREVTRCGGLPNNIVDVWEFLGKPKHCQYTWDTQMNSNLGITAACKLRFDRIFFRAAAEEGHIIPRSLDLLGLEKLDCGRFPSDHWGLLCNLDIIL

P388/ADR = test: cells; type: functional; settings: Mus musculus
BJ = test: BJ-TERT fibroblast viability loss – cell-based, RAS-independent, luminescence, dose response (AID 1933); type: functional; settings: Homo sapiens
P388 = test: cells; type: functional; settings: Mus musculus
SN12K1 = test: cells; type: functional; settings: Homo sapiens

Chain of Mast/stem cell growth factor receptor Kit (P10721 whole entry): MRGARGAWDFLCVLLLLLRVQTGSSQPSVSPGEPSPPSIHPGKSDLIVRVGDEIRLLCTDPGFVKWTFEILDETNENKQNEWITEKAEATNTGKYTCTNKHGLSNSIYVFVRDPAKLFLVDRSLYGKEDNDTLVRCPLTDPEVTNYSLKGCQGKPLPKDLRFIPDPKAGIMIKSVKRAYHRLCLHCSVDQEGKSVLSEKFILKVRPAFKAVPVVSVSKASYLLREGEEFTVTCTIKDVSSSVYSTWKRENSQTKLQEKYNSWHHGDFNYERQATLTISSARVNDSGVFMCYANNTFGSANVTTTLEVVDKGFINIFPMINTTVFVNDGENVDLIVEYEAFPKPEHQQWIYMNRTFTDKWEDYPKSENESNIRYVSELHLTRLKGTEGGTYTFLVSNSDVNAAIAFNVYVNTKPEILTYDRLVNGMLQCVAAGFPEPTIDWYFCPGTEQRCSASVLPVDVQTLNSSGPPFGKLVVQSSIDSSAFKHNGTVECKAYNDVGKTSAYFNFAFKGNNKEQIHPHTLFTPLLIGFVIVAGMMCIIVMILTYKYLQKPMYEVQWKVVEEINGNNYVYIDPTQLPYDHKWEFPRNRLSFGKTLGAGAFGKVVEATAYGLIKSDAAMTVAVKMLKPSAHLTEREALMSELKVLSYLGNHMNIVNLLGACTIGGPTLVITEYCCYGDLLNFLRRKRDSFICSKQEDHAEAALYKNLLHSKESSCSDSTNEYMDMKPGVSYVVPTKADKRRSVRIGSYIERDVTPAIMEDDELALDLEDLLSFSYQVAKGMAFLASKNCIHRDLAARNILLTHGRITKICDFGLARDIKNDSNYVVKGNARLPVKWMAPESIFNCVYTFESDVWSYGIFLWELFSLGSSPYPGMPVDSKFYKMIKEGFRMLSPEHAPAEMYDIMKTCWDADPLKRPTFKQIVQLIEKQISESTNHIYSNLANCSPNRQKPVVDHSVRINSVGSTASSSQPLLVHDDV
Chain of Rho-associated protein kinase 2 (O75116 whole entry): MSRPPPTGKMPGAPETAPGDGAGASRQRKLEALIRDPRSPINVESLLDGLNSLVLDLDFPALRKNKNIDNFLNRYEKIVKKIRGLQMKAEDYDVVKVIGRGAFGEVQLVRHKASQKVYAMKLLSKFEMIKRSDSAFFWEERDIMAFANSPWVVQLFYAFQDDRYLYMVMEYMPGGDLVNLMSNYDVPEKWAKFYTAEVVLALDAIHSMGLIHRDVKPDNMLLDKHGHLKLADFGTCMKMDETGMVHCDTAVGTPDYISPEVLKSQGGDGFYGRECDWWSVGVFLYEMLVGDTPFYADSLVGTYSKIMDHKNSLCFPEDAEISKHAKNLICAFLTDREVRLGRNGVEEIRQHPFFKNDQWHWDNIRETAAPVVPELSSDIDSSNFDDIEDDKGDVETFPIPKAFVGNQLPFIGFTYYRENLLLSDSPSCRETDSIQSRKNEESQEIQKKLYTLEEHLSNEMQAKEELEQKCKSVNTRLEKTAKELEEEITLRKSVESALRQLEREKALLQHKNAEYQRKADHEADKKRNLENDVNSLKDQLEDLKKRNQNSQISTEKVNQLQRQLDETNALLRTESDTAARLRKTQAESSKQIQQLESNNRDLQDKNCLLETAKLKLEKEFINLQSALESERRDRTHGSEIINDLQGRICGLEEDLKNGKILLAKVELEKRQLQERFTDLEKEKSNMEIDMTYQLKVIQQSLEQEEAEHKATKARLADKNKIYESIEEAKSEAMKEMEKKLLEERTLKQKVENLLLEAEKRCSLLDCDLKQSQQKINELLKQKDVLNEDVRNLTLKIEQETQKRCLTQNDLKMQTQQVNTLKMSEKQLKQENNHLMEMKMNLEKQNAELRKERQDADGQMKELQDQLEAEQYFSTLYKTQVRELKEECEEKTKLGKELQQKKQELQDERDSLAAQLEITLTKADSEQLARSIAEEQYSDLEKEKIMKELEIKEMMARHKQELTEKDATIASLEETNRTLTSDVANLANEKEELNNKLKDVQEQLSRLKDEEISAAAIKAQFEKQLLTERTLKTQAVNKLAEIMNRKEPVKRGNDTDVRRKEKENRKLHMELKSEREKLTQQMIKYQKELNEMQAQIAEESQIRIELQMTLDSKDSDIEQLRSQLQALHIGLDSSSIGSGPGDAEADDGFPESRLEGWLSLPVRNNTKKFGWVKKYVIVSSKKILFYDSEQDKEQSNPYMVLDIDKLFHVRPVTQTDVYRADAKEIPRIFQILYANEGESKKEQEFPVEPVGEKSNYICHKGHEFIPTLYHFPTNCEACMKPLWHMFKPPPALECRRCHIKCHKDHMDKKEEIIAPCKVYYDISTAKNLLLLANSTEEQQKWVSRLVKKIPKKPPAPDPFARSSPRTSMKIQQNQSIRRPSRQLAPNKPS

Ki [1]: > 6.31 µM (inactive)
Ki [2]: 0.0126 µM (active)
Structure (SMILES): CCC1CC(NS(=O)(=O)C2CC2)CC1c1ncc2cnc3[nH]ccc3n12 (configuration not stated)

Structure (SMILES): Cc1cc(C)c(S(=O)(=O)/N=C2\C=C(Nc3ccc(C(=O)O)cc3)C(=O)c3ccccc32)c(C)c1
IC50 [3]: 1.68 µM (active)
IC50 (Genome polyprotein): 21.2 µM (active)
EC50 [4]: 0.561 µM (active)
EC50 [5]: 6.73 µM (active)
AC50 [6]: 6.51 µM (active)
AC50 [7]: 17.2 µM (active)
AC50 [8]: 9.3 µM (active)

Ki [9]: > 3.16 µM (inactive)
Ki (LIM domain kinase 1): > 3.16 µM (inactive)
Structure (SMILES): O=C(Nc1cccc(C(F)(F)F)n1)Nc1ccnc2cc(OC(F)F)ccc12

Structure (SMILES): O=C(Cc1ccccc1)NC1(O)C(=O)c2ccccc2C1=O
AC50 [10]: 5.55 µM (active)
IC50 [11]: 13.2 µM (inactive)

Structure (SMILES): COC(=O)c1nc(-c2ccc3c(n2)C(=O)C(=N)C(OC)=C3O)c(N)c(-c2ccc(OC)c(OC)c2O)c1C
GI50 (P388/ADR): 1.4 µM (inactive)
EC50 (BJ): 5.91 µM (active)
GI50 (P388): 1.49 µM (inactive)
GI50 (SN12K1): 0.537 µM (active)
